In the NIST ThermoML archive (doi:10.1021/je400709f):
± gives the expanded uncertainty stated by the source.

Test: excess molar enthalpy (molar enthalpy of mixing); xn = mol fraction of the nth substance listed
Conditions: 298.15 K, 101 kPa, Liquid, Calvet calorimetry

CCCCCCCC[n+]1ccn(C)c1.F[B-](F)(F)F [1-methyl-3-octylimidazolium tetrafluoroborate] + CC(C)O
Conditions | excess molar enthalpy [kJ/mol]
x1 = 0.139 | 1.41 ± 0.034
x1 = 0.142 | 1.43 ± 0.034
x1 = 0.144 | 1.46 ± 0.035
x1 = 0.148 | 1.48 ± 0.035
x1 = 0.151 | 1.51 ± 0.037
x1 = 0.154 | 1.53 ± 0.036
x1 = 0.158 | 1.56 ± 0.036
x1 = 0.162 | 1.59 ± 0.037
x1 = 0.165 | 1.61 ± 0.037
x1 = 0.17 | 1.64 ± 0.037
x1 = 0.173 | 1.66 ± 0.038
x1 = 0.176 | 1.68 ± 0.038
x1 = 0.179 | 1.7 ± 0.038
x1 = 0.183 | 1.72 ± 0.039
x1 = 0.186 | 1.74 ± 0.039
x1 = 0.19 | 1.77 ± 0.039
x1 = 0.194 | 1.79 ± 0.04
x1 = 0.198 | 1.81 ± 0.041
x1 = 0.202 | 1.84 ± 0.041
x1 = 0.207 | 1.86 ± 0.041
x1 = 0.212 | 1.89 ± 0.042
x1 = 0.216 | 1.92 ± 0.043
x1 = 0.221 | 1.95 ± 0.043
x1 = 0.227 | 1.99 ± 0.044
x1 = 0.232 | 2.03 ± 0.045
x1 = 0.238 | 2.06 ± 0.046
x1 = 0.244 | 2.1 ± 0.046
x1 = 0.251 | 2.14 ± 0.048
x1 = 0.258 | 2.21 ± 0.05
x1 = 0.265 | 2.26 ± 0.05
x1 = 0.273 | 2.31 ± 0.051
x1 = 0.281 | 2.36 ± 0.052
x1 = 0.29 | 2.42 ± 0.053
x1 = 0.295 | 2.46 ± 0.054
x1 = 0.301 | 2.5 ± 0.055
x1 = 0.307 | 2.53 ± 0.055
x1 = 0.314 | 2.57 ± 0.056
x1 = 0.32 | 2.61 ± 0.057
x1 = 0.327 | 2.65 ± 0.057
x1 = 0.335 | 2.68 ± 0.058
x1 = 0.342 | 2.72 ± 0.059
x1 = 0.35 | 2.75 ± 0.059
x1 = 0.359 | 2.78 ± 0.06
x1 = 0.367 | 2.81 ± 0.06
x1 = 0.377 | 2.83 ± 0.06
x1 = 0.386 | 2.85 ± 0.061
x1 = 0.396 | 2.86 ± 0.061
x1 = 0.407 | 2.86 ± 0.061
x1 = 0.418 | 2.86 ± 0.061
x1 = 0.43 | 2.85 ± 0.061
x1 = 0.443 | 2.85 ± 0.061
x1 = 0.456 | 2.83 ± 0.06
x1 = 0.471 | 2.81 ± 0.06
x1 = 0.486 | 2.79 ± 0.059
x1 = 0.502 | 2.76 ± 0.059
x1 = 0.519 | 2.72 ± 0.058
x1 = 0.538 | 2.67 ± 0.057
x1 = 0.558 | 2.62 ± 0.056
x1 = 0.566 | 2.59 ± 0.056
x1 = 0.575 | 2.56 ± 0.055
x1 = 0.584 | 2.53 ± 0.054
x1 = 0.593 | 2.49 ± 0.054
x1 = 0.602 | 2.46 ± 0.053
x1 = 0.612 | 2.42 ± 0.052
x1 = 0.622 | 2.37 ± 0.051
x1 = 0.632 | 2.33 ± 0.05
x1 = 0.643 | 2.28 ± 0.049
x1 = 0.654 | 2.23 ± 0.048
x1 = 0.666 | 2.18 ± 0.047
x1 = 0.678 | 2.12 ± 0.046
x1 = 0.69 | 2.06 ± 0.045
x1 = 0.703 | 1.99 ± 0.044
x1 = 0.716 | 1.92 ± 0.042
x1 = 0.73 | 1.84 ± 0.041
x1 = 0.744 | 1.76 ± 0.039
x1 = 0.759 | 1.68 ± 0.038
x1 = 0.775 | 1.58 ± 0.036
x1 = 0.791 | 1.48 ± 0.034
x1 = 0.808 | 1.38 ± 0.032
x1 = 0.825 | 1.26 ± 0.03
x1 = 0.844 | 1.14 ± 0.028
x1 = 0.863 | 1.01 ± 0.026
x1 = 0.883 | 0.87 ± 0.023
x1 = 0.904 | 0.717 ± 0.021
x1 = 0.927 | 0.559 ± 0.019
x1 = 0.95 | 0.382 ± 0.017
x1 = 0.974 | 0.201 ± 0.016

CCCCCCCC[n+]1ccn(C)c1.F[B-](F)(F)F [1-methyl-3-octylimidazolium tetrafluoroborate] + CCCCCO
Conditions | excess molar enthalpy [kJ/mol]
x1 = 0.213 | 1.46 ± 0.034
x1 = 0.218 | 1.5 ± 0.034
x1 = 0.223 | 1.53 ± 0.035
x1 = 0.229 | 1.56 ± 0.035
x1 = 0.234 | 1.59 ± 0.036
x1 = 0.24 | 1.62 ± 0.036
x1 = 0.244 | 1.64 ± 0.036
x1 = 0.249 | 1.67 ± 0.037
x1 = 0.254 | 1.69 ± 0.037
x1 = 0.259 | 1.72 ± 0.038
x1 = 0.264 | 1.74 ± 0.039
x1 = 0.269 | 1.77 ± 0.039
x1 = 0.275 | 1.79 ± 0.039
x1 = 0.281 | 1.82 ± 0.04
x1 = 0.287 | 1.85 ± 0.041
x1 = 0.293 | 1.88 ± 0.041
x1 = 0.3 | 1.91 ± 0.042
x1 = 0.306 | 1.94 ± 0.042
x1 = 0.314 | 1.98 ± 0.043
x1 = 0.321 | 2.01 ± 0.044
x1 = 0.329 | 2.05 ± 0.045
x1 = 0.338 | 2.09 ± 0.046
x1 = 0.346 | 2.13 ± 0.046
x1 = 0.356 | 2.17 ± 0.047
x1 = 0.365 | 2.22 ± 0.048
x1 = 0.372 | 2.25 ± 0.049
x1 = 0.378 | 2.28 ± 0.049
x1 = 0.385 | 2.31 ± 0.05
x1 = 0.392 | 2.34 ± 0.051
x1 = 0.4 | 2.37 ± 0.051
x1 = 0.407 | 2.4 ± 0.052
x1 = 0.415 | 2.43 ± 0.052
x1 = 0.424 | 2.46 ± 0.053
x1 = 0.432 | 2.49 ± 0.053
x1 = 0.441 | 2.51 ± 0.054
x1 = 0.451 | 2.53 ± 0.054
x1 = 0.46 | 2.54 ± 0.054
x1 = 0.471 | 2.54 ± 0.054
x1 = 0.481 | 2.54 ± 0.054
x1 = 0.492 | 2.53 ± 0.054
x1 = 0.504 | 2.51 ± 0.054
x1 = 0.516 | 2.5 ± 0.053
x1 = 0.529 | 2.48 ± 0.053
x1 = 0.542 | 2.45 ± 0.052
x1 = 0.557 | 2.42 ± 0.052
x1 = 0.572 | 2.38 ± 0.051
x1 = 0.587 | 2.33 ± 0.05
x1 = 0.604 | 2.28 ± 0.049
x1 = 0.622 | 2.23 ± 0.048
x1 = 0.64 | 2.16 ± 0.047
x1 = 0.648 | 2.13 ± 0.046
x1 = 0.656 | 2.1 ± 0.045
x1 = 0.664 | 2.06 ± 0.045
x1 = 0.673 | 2.02 ± 0.044
x1 = 0.681 | 1.99 ± 0.043
x1 = 0.69 | 1.95 ± 0.043
x1 = 0.699 | 1.9 ± 0.042
x1 = 0.708 | 1.86 ± 0.041
x1 = 0.718 | 1.81 ± 0.04
x1 = 0.728 | 1.76 ± 0.039
x1 = 0.738 | 1.71 ± 0.038
x1 = 0.748 | 1.66 ± 0.037
x1 = 0.759 | 1.6 ± 0.036
x1 = 0.77 | 1.54 ± 0.035
x1 = 0.781 | 1.47 ± 0.034
x1 = 0.792 | 1.41 ± 0.032
x1 = 0.804 | 1.33 ± 0.031
x1 = 0.817 | 1.26 ± 0.03
x1 = 0.829 | 1.18 ± 0.028
x1 = 0.842 | 1.1 ± 0.027
x1 = 0.856 | 1.01 ± 0.025
x1 = 0.87 | 0.92 ± 0.024
x1 = 0.884 | 0.825 ± 0.022
x1 = 0.899 | 0.722 ± 0.021
x1 = 0.914 | 0.618 ± 0.019
x1 = 0.93 | 0.503 ± 0.018
x1 = 0.947 | 0.388 ± 0.017
x1 = 0.964 | 0.262 ± 0.016
x1 = 0.982 | 0.134 ± 0.015
